Patent US12648948B2, “Methods and compositions for treating cancer” (UNITED STATES GOVERNMENT AS REPRESENTED BY THE DEPARTMENT …, priority 2017, dated 2026)

How the values were obtained:
[1] = system: GBM9 and GBM39 neurospheres; test: AlamarBlue cell viability assay, patient derived GBM neurospheres; format: cell-based, human; conditions: 72 h
Experimental: Cell viability assay was conducted using AlamarBlue cell viability assay kit (ThermoFisher) following manufacturer's protocol. Cells were cultured in Corning 96-well black plates with clear bottom (5000 cells/well). Drugs were added to cells for 72 hour following detection using POLARstar Omega Microplate Reader (excitation at 544 nm and emission at 590 nm) (BMG LABTECH, Germany).

[2] = system: AP-1 transcriptional activity; test: AP-1 luciferase reporter assay; format: cell-based, human; conditions: erlotinib 1 μM, 24 h; GBM9 and U87EGFRwt cells
Experimental: (§1) Cells were plated in 48 well dishes to 70%-80% confluence followed by with […] or 3xAP1pGL3 reporter plasmid using lipofectamine 2000. A dual-luciferase reporter assay system was used according to manufacturer's instructions (Promega, Madison WI). Firefly luciferase activity was measured in a luminometer and normalized on the basis of Renilla luciferase activity. Experiments were done in triplicate and 3 independent experiments were done.

[3] = system: TNF; test: TNF mRNA (qRT-PCR) and TNF ELISA in glioma cells; format: cell-based, human
Experimental: Total RNA was isolated by TRIzol Reagent (Ambion). cDNA Reverse Transcription were performed by using High-Capacity cDNA Reverse Transcription Kit (Applied Biosystems). PCR primers were synthesized by IDT (Coralville, IA). Each PCR was carried out in triplicate in a 20 μl volume using SYBR Green Master Mix (Applied Biosystems) for 15 minutes at 95° C. for initial denaturing, followed by 40 cycles of 95° C. for 15 s and 60° C. for 60 s in ViiA 7 Real-Time PCR System (Applied Biosystems). At least two independent experiments were done. Values for each gene were normalized to expression levels of GAPDH mRNA.
2×10^6 cells were incubated in serum-free or EGF free medium containing different concentrations of erlotinib or DMSO. After 48 hours, supernatant and cell lysates were collected. Supernatant medium was concentrated 5-10-fold with Pierce protein concentrator (ThermoFisher). TNF protein concentration in supernatant, cell lysates and tissue extracts was determined by ELISA using a commercial TNF detection kit (ThermoFisher) according to manufacturer's instructions. Additionally, GAS6 protein concentration in supernatant was measured by ELISA kit (LifeSpan BioSciences).

[4] = system: NF-κB transcriptional activity; test: NF-κB luciferase reporter assay; format: cell-based, human; conditions: erlotinib 24 h, 100 nM GBM9, 1 uM U87EGFRwt; LPS 1 μg/ml
Experimental: as §1

[5] = system: GAS6; test: GAS6 expression (real time PCR, ELISA, Western blot); format: cell-based, human; conditions: erlotinib; patient derived neurospheres and established GBM cell lines
Experimental: Total RNA was isolated by TRIzol Reagent (Ambion). cDNA Reverse Transcription were performed by using High-Capacity cDNA Reverse Transcription Kit (Applied Biosystems). […] Each PCR was carried out in triplicate in a 20 μl volume using SYBR Green Master Mix (Applied Biosystems) for 15 minutes at 95° C. for initial denaturing, followed by 40 cycles of 95° C. for 15 s and 60° C. for 60 s in ViiA 7 Real-Time PCR System (Applied Biosystems). At least two independent experiments were done. Values for each gene were normalized to expression levels of GAPDH mRNA. The following primers were used: TNF, [NT] ID NO:3) and [NT] ID NO:4); […] GAPDH, [NT] ID NO:7) and [NT] ID NO:8). […] After 48 hours, supernatant and cell lysates were collected. Supernatant medium was concentrated 5-10-fold with Pierce protein concentrator (ThermoFisher). TNF protein concentration in supernatant, cell lysates and tissue extracts was determined by ELISA using a commercial TNF detection kit (ThermoFisher) according to manufacturer's instructions. Additionally, GAS6 protein concentration in supernatant was measured by ELISA kit (LifeSpan BioSciences).

[6] = system: GBM9 intracranial tumors; test: Orthotopic (intracranial) GBM9 model, survival and bioluminescence imaging; conditions: erlotinib 50 mg/kg oral gavage and/or thalidomide 150 mg/kg i.p., 10 days; repeated with afatinib
Experimental: For the orthotropic model, 1×10^5 GBM9 cells expressing firefly luciferase were injected into the right corpus striatum of the brains of 6-8-week-old nude mice using a stereotactic frame. […] The mice were treated with erlotinib 50 mg/kg by oral gavage and/or intraperitoneal (i.p.) injection of 150 mg/kg thalidomide for 10 consecutive days. Bioluminescence imaging (BLI) was performed to record the growth of tumor every 5 days. Kaplan-Maier survival curves were calculated using GraphPad Prism 7.0 software. Mice were monitored and sacrificed when neurological signs appeared or after 40 days.

[7] = system: ERK; test: Western blot, ERK activation (pERK) in glioma cells; conditions: GBM9 neurospheres
Experimental: Western blot analysis was performed according to standard protocols. In all experiments, before the addition of EGF or erlotinib established cells were cultured overnight in serum free DMEM and primary GBM neurospheres were EGF starved overnight. Cells not treated with EGF or erlotinib were also serum or EGF starved.

[8] = system: JNK; test: Western blot, JNK activation (phosphorylation of JNK) in glioma cells; format: cell-based, human; conditions: erlotinib; patient derived neurospheres and established GBM cell lines
Experimental: Western blot analysis was performed according to standard protocols.

C#Cc1cccc(Nc2ncnc3cc(OCCOC)c(OCCOC)cc23)c1 [erlotinib]
Cell viability, erlotinib alone at low concentration ([1]; erlotinib 100 nM): resistant to EGFR inhibition
Cell viability, erlotinib alone at 1 μM ([1]; erlotinib 1 μM): significant cell death
AP-1 reporter activity [2]: increased activity of the AP-1 reporter
TNF mRNA in GBM622 cells ([3]; GBM622 neurospheres (very low EGFR), erlotinib 100 nM, 24 h): No increase in TNF is detected
TNF mRNA levels ([3]; erlotinib 100 nM (GBM9, GBM39) or 1 μM (U87EGFRwt, U87EGFRvIII)): significant and rapid increase in TNF mRNA levels
TNF protein level (ELISA) ([3]; supernatants of erlotinib treated cells): increase in TNF was confirmed at a protein level
NF-κB reporter / transcriptional activity [4]: does not result in an increase in NF-κB reporter activity
GAS6 expression [5]: increase in GAS6
Survival of mice [6]: neither erlotinib nor thalidomide alone had a significant effect
ERK activation after addition of erlotinib ([7]; erlotinib 1 μM, early time points): decreased after addition of erlotinib
Feedback reactivation of ERK under continued EGFR inhibition ([7]; erlotinib 1 μM or afatinib 100 nM): reactivation of ERK is seen at 24-48 h
JNK activation (phosphorylation of JNK) [8]: activation of INK
